Test results published in patent US20220332774A1, “THERAPEUTIC MITOCHONDRIAL PEPTIDES” (priority 2019, published 2022).

Experiments:
3T3-L1 Mouse Adipocytes = test: Free fatty acid levels in cultured 3T3-L1 mouse adipocytes (isoproterenol stimulated); assay type: cell-based; settings: free fatty acid in medium; 5 μM peptide, 20-22 h pre-incubation then 3 h with 0.1 nM isoproterenol; isoproterenol alone = 100%
Protocol: The effect of the peptides on fatty acid metabolism can be assessed using an assay to monitor free fatty acid levels produced by cultured cells such as mouse adipocytes. Peptide arrays were initially prepared as 5 mM stock in DMSO and diluted to 0.5 mM in H2O; peptides were used at a final concentration of 5 μM (0.1% DMSO). Calculations for peptide concentrations based on approximate molecular weight of 2000 Daltons. […] Mouse 3T3-L1 cells purchased from ZenBio (Research Triangle Park, NC) were seeded at 3,000 cells per well in 96-well plates in Pre-adipocyte Medium (Zen-Bio) and grown to confluence at 37° C. in a humidified atmosphere of 5% CO2/95% air. Two days after confluence, cells were placed in Adipocyte Differentiation Medium (Zen-Bio) and cultured for three additional days at 37° C. in a humidified atmosphere of 5% CO2/95% air. The culture medium was then replaced with Adipocyte Maintenance Medium (Zen-Bio) and the cells maintained for an additional 9 days at 37° C. in a humidified atmosphere of 5% CO2/95% air with partial medium replacement every other day. Following 12 days of differentiation, medium was replaced Adipocyte Maintenance Medium without insulin and the cultures placed at 37° C. in a humidified atmosphere of 5% CO2/95% air. On day 13 of differentiation, test peptides were added directly to each well (without replacing the medium) at a final concentration of 5 μM in 0.1% DMSO and incubated for 20-22 hours at 37° C. in a humidified atmosphere of 5% CO2/95% air. […] Cells were incubated for 3 hours in Assay Buffer (Zen-Bio) at 37° C. in a humidified atmosphere of 5% CO2/95% air. Following 3 h incubation, conditioned medium from each well was transferred to a fresh 96-well plate. Free fatty acid concentrations in the medium were determined using a Free Fatty Acid Assay kit (Zen-Bio) according to the manufacturer's instructions; absorbance was measured using a Cytation 3 plate reader at 540 nm (BioTek, Winooski, Vt.). Treatment with 0.1 nM isoproterenol alone was used as the free fatty acid level stimulatory control. Absorbance values were expressed as percent control activity relative to 0.1 nM isoproterenol alone treated cells, 100%. The relative standard deviation of the isoproterenol control was <10%. Insulin at 0.25 nM was used as a potent control for decreasing free fatty acid levels. […] Data presented are representative values from 2 independent experiments with each data point performed in triplicate in each independent experiment.

C2C12 Cells = test: Glucose utilization in cultured C2C12 cells (myotubes); assay type: cell-based, mouse; settings: glucose concentration in medium relative to untreated cells; 5 μM peptide, 22 h
Protocol: The effect of the peptides on glucose homeostasis can be assessed using an assay to monitor glucose utilization by cultured cells such as mouse myotubes. Peptide arrays were initially prepared as 5 mM stock in DMSO and diluted to 0.5 mM in H2O; peptides were used at a final concentration of 5 μM (0.1% DMSO). Calculations for peptide concentrations based on approximate molecular weight of 2000 Daltons. C2C12 mouse muscle cell line was purchased from Millipore Sigma (Saint Louis, Mo.). C2C12 cells were seeded in standard medium (DMEM/low glucose (1 g/L)+10% Fetal Bovine Serum+antibiotics) at 7,500 cells/well on 96-well plates and grown to confluence at 37° C. in a humidified atmosphere of 5% CO2/95% air. Three days after plating the medium was removed and with Differentiation Medium (DMEM/low glucose (1 g/L)+2% Horse Serum+antibiotics) added. The cultures were placed at 37° C. in a humidified atmosphere of 5% CO2/95% air for 5 days with partially replacement of medium daily. After 5 days of differentiation, the medium was removed from myotube cultures and replaced with Assay Medium (DMEM/low glucose (1 g/L)+antibiotics). Culture were placed at 37° C. in a humidified atmosphere of 5% CO2/95% air for 5 h. Following the 5 h incubation the medium was removed and fresh Assay Medium containing compounds was added; 5 μM peptide or 1 mM metformin as a potent stimulator of glucose utilization. Cells were incubated for 22 h at 37° C. in a humidified atmosphere of 5% CO2/95% air. Following 22 h incubation, conditioned medium from each well was transferred to a fresh 96-well plate. Glucose concentrations in the medium were determined using a Glucose Assay kit (Abcam; Cambridge, Mass.) according to the manufacturer's instructions; absorbance measured using a Cytation 3 plate reader at 570 nm (BioTek, Winooski, Vt.). Untreated cells were used as reference for basal glucose utilization. Absorbance values were expressed as percent control activity relative to untreated treated cells for 5 μM peptide. The relative standard deviation from plate to plate of untreated control was <10%. […] Data presented are representative values from 2-3 independent experiments with each data point performed in triplicate in each independent experiment.

H4-IIE Cells = test: Glucose production in cultured H4-IIE cells; assay type: cell-based, rat; settings: glucose concentration in medium relative to untreated cells; 5 μM peptide, 24 h
Protocol: The effect of the peptides on glucose homeostasis can be assessed using an assay to monitor glucose production by cultured cells such as rat hepatocytes. Peptide arrays were initially prepared as 5 mM stock in DMSO and diluted to 0.5 mM in H2O; peptides were used at a final concentration of 5 μM (0.1% DMSO). Calculations for peptide concentrations based on approximate molecular weight of 2000 Daltons. H4-IIE rat hepatic cell line was purchased from American Type Culture Collection (Manassas, Va.). H4-IIE cells were seeded in standard medium (DMEM/high glucose+10% Fetal Bovine Serum+antibiotics) at 100,000 cells/well on 96-well plates and allowed to adhere overnight at 37° C. in a humidified atmosphere of 5% CO2/95% air. 24 h after seeding, the medium was removed, cells were rinsed with glucose free DMEM, and the medium replaced with Glucose Production Medium (glucose free DMEM+2 mM sodium pyruvate+10 mM sodium lactate+antibiotics). The cultures were placed at 37° C. in a humidified atmosphere of 5% CO2/95% air overnight. The next morning, the medium was removed and fresh Glucose Production Medium containing compounds was added; 5 uM peptide or 0.5-1 nM insulin as a potent inhibitor of glucose production. Cells were incubated for 24 h at 37° C. in a humidified atmosphere of 5% CO2/95% air. Following 24 h incubation, conditioned medium from each well was transferred to a fresh 96-well plate. Glucose concentrations in the medium were determined using a Glucose Assay kit (Abcam; Cambridge, Mass.) according to the manufacturer's instructions; absorbance measured using a Cytation 3 plate reader at 570 nm (BioTek, Winooski, Vt.). Untreated cells were used as reference for maximal glucose production. Absorbance values were expressed as percent control activity relative to untreated treated cells for 5 μM peptide. The relative standard deviation from plate to plate of untreated control was <25%. […] Glucose levels for 0.5-1 nM insulin treatment were <5% of the untreated control value. Data are presented as representative values from 2-3 independent experiments with each data point performed in triplicate in each independent experiment.

Substance	Percent of Isoproterenol Control Activity (3T3-L1 Mouse Adipocytes) [%]	Percent of Control Activity (C2C12 Cells) [%]	Percent of Control Activity (H4-IIE Cells) [%]
72 (MLQGQAHLSILFSI) [compound 72]	96	97	107
73 (MLRSMLWNLWSKPQFHAHRP) [compound 73]	98	111	111
75 (MLTPGLVNFVPATAVTRLTQVN) [compound 75]	79	100	112
78 (MMAHLGKKPVSGG) [compound 78]	96	106	114
79 (MMCLRFRWCGLWS) [compound 79]	90	94	116
80 (MMDPEHMNSMALKKAWVQMC) [compound 80]	87	99	111
81 (MMFPIRLHNSPIRP) [compound 81]	90	118	115
82 (MMGITMKKIITNAWAVTMTL) [compound 82]	98	105	114
83 (MMGMWLVGHYVLSC) [compound 83]	102	95	109
84 (MMKGKMKWKVKNRV) [compound 84]	99	95	108
85 (MMKLRLTPWRLPDPPNHH) [compound 85]	81	88	108
86 (MMLSWDDIIYGG) [compound 86]	98	87	108
87 (MMMFVYSAMKN) [compound 87]	101	97	109
88 (MMMTIECLHSHFPH) [compound 88]	95	87	112
89 (MMNSDSIIPS) [compound 89]	111	112	110
90 (MMSVWKVAVQTFNCYYYVLQALIN) [compound 90]	101	97	104

Substance	Percent of Isoproterenol Control Activity (3T3-L1 Mouse Adipocytes) [%]	Percent of Control Activity (C2C12 Cells) [%]	Percent of Control Activity (H4-IIE Cells) [%]
91 (MMTHPTTPLTINTKPP) [compound 91]	93	109	116
92 (MMTWSPWKPVATKNVEP) [compound 92]	99	93	124
93 (MMWKTIVVFQLQEHQWPQYAKLTP) [compound 93]	96	104	120
95 (MNHIMAKGHDG) [compound 95]	111	92	121
96 (MNHNQYYQSMLIINNHNSYSNKT) [compound 96]	100	91	130
97 (MNNSSSTVQP) [compound 97]	105	95	122
98 (MNPDQPHHLLLSLYTAIFSKPWW) [compound 98]	97	91	117
100 (MPIIRRMSWSP) [compound 100]	105	102	123
102 (MPLRLEWVQWGVGGWPWVCC) [compound 102]	120	102	108
103 (MPPKDKIWNLV) [compound 103]	108	98	97
105 (MPRKCWLYPSRTN) [compound 105]	91	114	118
106 (MPTNLPTLNST) [compound 106]	98	101	107
107 (MPTPILIFRSPWSLYSYPT) [compound 107]	104	110	96
108 (MQFTLATPKCYGPGA) [compound 108]	102	96	104
109 (MQNPPHSSPHSSPLPRYSYLSPLLY) [compound 109]	94	95	105
110 (MQPYRRYRFHPRLSMIYPTLQLM) [compound 110]	93	110	108
